In assay [1] the target is T1, His-tagged AAK1 catalytic domain (25–396) (Homo sapiens, UniProt Q2M2I8).
T1 construct: Purified His-AAK1 25–396 (200 ng); His10 (N); made in house; host or cells: COS-7 cells
The experiment in a line: AAK1 activity assay: phosphorylation of GST-AP2µ2 (145–162) by His-AAK1 25–396 with [γ-32P]ATP. It is filed as biochemical. To be noted: for IC50: His-AAK1 25–396, GST-AP2µ2 (145–162), 100 µM [γ-32P]ATP, 30 °C, 20 min, read-out: IC50 against AAK1 activity. How it is done:
AAK1 phosphorylates AP2µ2 at Thr156; therefore, we set up an AAK1 activity assay using GST-fused AP2µ2 fragment (residues 145–162) as a substrate and anti-phospho-Thr156 antibody for detection of the substrate phosphorylation by AAK1.
(§1) Purified His-AAK1 25–396 (200 ng), His-GAK 2–370 (33 ng), His-BIKE 2–396 (87 ng), and His-STK16 2–306 (95 ng) were incubated with 10 µg GST-AP2µ2 (145–162)-His6 in a solution (20 µL) containing 50 mM HEPES pH7.5, 10 mM Mg(CH3COO)2, 1 mM DTT, and 0.1 mM [γ-^32P]ATP or ATP at 30 °C for the indicated time periods (His-GAK 2–370, 10 min; His-BIKE 2–396, 90 min; His-STK16 2–306, 20 min) in the presence or absence of various concentrations of inhibitors (5% DMSO). Then, 15 µL of the sample was spotted onto Whatman P81 paper and washed using 95% EtOH, followed by scintillation counting of the paper to measure the phosphate incorporation into GST-AP2µ2 (145–162)-His6. For immunoblot detection, reactions were terminated by the addition of an equal volume of 2 × SDS-PAGE buffer at various time points, followed by immunoblot analyses using an anti-phospho-AP2µ2 (AP2M1) at Thr156 antibody.

Another assay concerns the target T2, His-tagged AAK1 (Homo sapiens, UniProt Q2M2I8).
T2 construct: expressed in transfected cells; host or cells: COS-7 cells
The experiment in a line: Pull-down of His-tagged AAK1 from COS-7 cell extracts with TIM-063–immobilized sepharose (TIM-127-sepharose). The assay is classed as binding. To be noted: COS-7 extracts, elution with 100 µM TIM-063. How it is done:
COS-7 cells transfected with expression plasmids for His-tagged AAK1 were lysed with buffer A containing protease inhibitors as described above, and then cell lysates (200 µL) were incubated with either TIM-127-coupled sepharose or control sepharose (10 µL) for 30 min. After washing the resin thrice with buffer A (500 µL), samples were eluted from the sepharose resin by incubation with 20 µL of 100 µM TIM-063 in buffer A as previously described, followed by immunoblot analysis.

In assay [2] the target is T3, CaMKKα/1 (Rattus norvegicus, UniProt P97756).
T3 construct: His6; made in house; host or cells: COS-7 cells
Details: method as in PMID 32298102. To be noted: cited from earlier work.

Assay [3] addresses T4, CaMKKβ/2 (Rattus norvegicus, UniProt O88831).
T4 construct: His6; made in house; host or cells: COS-7 cells
More on the design: method as in PMID 32298102. To be noted: cited from earlier work.

Assay [4] concerns the target T3, CaMKKα/1. The experiment in a line: CaMKK activity assay: phosphorylation of GST-CaMKIα 1–293KE. It is filed as biochemical. To be noted: up to 2.6 µM, immunoblot anti-phospho-CaMKIα (pThr177), 30 °C, 10 min, Fig. 4c. How it is done:
(§2) Purified His-CaMKKα/1 or His-CaMKKβ/2 (40 ng) was incubated with 10 µg GST-CaMKIα 1–293KE in a solution (20 µL) containing 50 mM HEPES pH7.5, 10 mM Mg (CH3COO)2, 1 mM DTT, 2 mM CaCl2, 6 µM CaM, and 0.1 mM [γ-^32P]ATP at 30 °C for a reaction time of 20 min in the presence or absence of compounds. Then, 15 µL of the sample was spotted onto Whatman P81 paper, followed by scintillation counting of the paper as described above to measure the phosphate incorporation into GST-CaMKIα 1–293KE. Reactions were terminated by the addition of an equal volume of 2 × SDS-PAGE for the immunoblot assay at 30 °C for 10 min using 2.5 ng of CaMKKs in the solution described above containing 0.1 mM ATP, followed by immunoblot analyses using anti-phospho-CaMKIα at the Thr177 antibody.
(In general: A western blot detects proteins with antibodies after separation by electrophoresis.)

The target of assay [5] is T4, CaMKKβ/2. Described as above. It is filed as biochemical. To be noted: up to 2.6 µM, immunoblot anti-phospho-CaMKIα (pThr177), 30 °C, 10 min, Fig. 4c. Here is the method: as §2
Another assay deals with T5, His-BIKE 2–396 (Mus musculus, UniProt Q91Z96).
T5 construct: His-BIKE 2–396 (87 ng); His6 (N); made in house; host or cells: COS-7 cells
Put plainly: NAKs activity assay: phosphorylation of GST-AP2µ2 (145–162). It is filed as biochemical. To be noted: His-BIKE 2–396, 0.1 mM ATP, 30 °C, 90 min, duplicate experiments; read-out: IC50 against BIKE activity. How it is done: as §1
(§3) Supplemental Information S3
(§4) Effect of TIM-98a on NAKs’ activities. Purified His-GAK 2–370 (33 ng, closed triangles), His-BIKE 2–396 (87 ng, closed circles), and His-STK16 2–306 (95 ng, open circles) were incubated with 10 µg GST-AP2µ2 (145–162)-His6 in a solution (20 µL) containing 50 mM HEPES pH7.5, 10 mM Mg(CH3COO)2, 1 mM DTT, and 0.1 mM ATP at 30°C for the indicated time periods (His-GAK 2–370, 10 min; His-Bike 2–396, 90 min; His-STK16 2–306, 20 min) in the presence or absence (-) of various concentrations of TIM-098a. […] NAK’s activities are quantitated by densitometric scanning of the immunoreactive bands and expressed as a percentage of the average value in the absence of the compound (-). Results represent duplicate experiments. Molecular mass markers (kDa) are indicated in the left lanes of immunoblot panels.
(§5) (1 picture or pasted object on this page, not shown here)

Another assay concerns the target T6, His-GAK 2–370 (Mus musculus, UniProt Q99KY4).
T6 construct: His-GAK 2–370 (33 ng); His6 (N); made in house; host or cells: COS-7 cells
T6 sequence (Q99KY4 2-370): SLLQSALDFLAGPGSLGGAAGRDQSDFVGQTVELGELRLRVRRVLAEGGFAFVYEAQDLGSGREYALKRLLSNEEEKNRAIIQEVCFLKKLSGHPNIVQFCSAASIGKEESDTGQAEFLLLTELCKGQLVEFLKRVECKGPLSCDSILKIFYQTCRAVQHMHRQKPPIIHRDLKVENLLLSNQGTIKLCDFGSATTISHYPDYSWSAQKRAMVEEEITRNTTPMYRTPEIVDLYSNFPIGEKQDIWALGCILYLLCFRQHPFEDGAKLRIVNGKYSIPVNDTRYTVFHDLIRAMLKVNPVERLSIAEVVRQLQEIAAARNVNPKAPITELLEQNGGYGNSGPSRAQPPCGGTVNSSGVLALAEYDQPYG
The description is as above. It is filed as biochemical. To be noted: His-GAK 2–370, 0.1 mM ATP, 30 °C, 10 min, duplicate experiments; read-out: IC50 against GAK activity. How it is done: as §1, §3, §4, §5

For another assay, the target named is T7, His-STK16 2–306 (Mus musculus, UniProt O88697).
T7 construct: His-STK16 2–306 (95 ng); His6 (N); made in house; host or cells: COS-7 cells
The description is as above. The assay is classed as biochemical. To be noted: His-STK16 2–306, 0.1 mM ATP, 30 °C, 20 min, duplicate experiments; read-out: IC50 against STK16 activity. How it is done: as §1, §3, §4, §5

Assay [6] has as its target T8, AAK1 catalytic domain (25–396) in transfected COS-7 cells (Homo sapiens, UniProt Q2M2I8).
T8 construct: transfected with 0.2 µg of pME-His-AAK1 25–396; expressed in transfected cells; host or cells: COS-7 cells
Put plainly: AAK1 activity in transfected COS-7 cells (pThr156 of GST-AP2µ2 145–162, immunoblot). To be noted: COS-7 cells expressing AAK1 25–396 and GST-AP2µ2 (145–162), 6 h treatment. It is filed as cell-based. Here is the method:
To examine the effect of TIM-098a on AAK1 activity in cells, we set up an AAK1 activity assay in the cells as follows. Transfection of expression plasmids for the catalytic domain of AAK1(25–396) together with its artificial substrate (GST-AP2µ2 145–162) into COS-7 cells was followed by detection of phosphorylation of Thr156 via immunoblot analyses with anti-phospho-Thr156 antibody after 6 h-treatment with or without TIM-098a (Fig. 5). […] When we treated AAK1/GST-AP2µ2 (145–162) expressing COS-7 cells with various concentrations of TIM-098a, AAK1-catalyzed Thr156 phosphorylation of GST-AP2µ2 (145–162) was suppressed by TIM-098a treatment in a concentration-dependent manner (Fig. 5b), indicating the cell-membrane permeability and inhibitory effect of the inhibitor on AAK1 activity in the cells.
COS-7 cells and HeLa cells were obtained from American Type Culture Collection. COS-7 cells were cultured in 6-well plates or 10 cm dishes in Dulbecco’s modified Eagle’s medium supplemented with 10% fetal bovine serum at 37 °C in 5% CO2. COS-7 cells in 6-well plates were transfected with 0.2 µg of pME-His-AAK1 25–396 and 1.8 µg of pME-GST-AP2µ2 (145–162) expression plasmids using polyethylenimine “MAX” (Polysciences, Inc. Warrington, PA), according to the manufacturer’s protocol. […]

In assay [7] the test system is HeLa cells overexpressing His-tagged AAK1 (1–863). The experiment in a line: Early endosome formation (EEA1-positive vesicles), immunofluorescence microscopy. It is filed as cell-based, human. To be noted: 10 µM, 6 h, AAK1-transfected HeLa cells. How it is done: (§6) HeLa cells were cultured in 6-well plates containing Dulbecco’s modified Eagle’s medium supplemented with 10% fetal bovine serum at 37 °C in 5% CO2. The cells were transfected with 2 µg of an AAK1-expression plasmid (pME-His-AAK1 1–863) using polyethylenimine “MAX” according to the manufacturer’s protocol. After 42 h of culture, the cells were cultured with or without 10 µM TIM-098a for 6 h. HeLa cells grown on coverslips were fixed with 3.7% paraformaldehyde in PBS for 15 min and permeabilized with 0.1% Triton X-100 in PBS for 5 min at room temperature. Next, the cells were blocked with 4% bovine serum albumin (BSA) in PBS for 15 min and incubated with primary antibodies diluted in 4% BSA in PBS for 15 min. The cells were washed three times with PBS and incubated for 15 min with the appropriate secondary antibodies conjugated to Alexa fluorophores. After washing, the coverslips were mounted on microscope slides and viewed under an FV1000 confocal microscope (Olympus, Tokyo, Japan). Quantification of EEA1-positive vesicles was performed using ImageJ software. EEA1 fluorescence signals with areas greater than 430 nm^2 were counted as EEA1-positive vesicles using the particle analyzer function in ImageJ. To account for clustered EEA1 signals, the watershed segmentation method was applied in ImageJ before using the particle analyzer.

In another assay the test system is HeLa cells. The assay is described as above. The assay is classed as cell-based, human. To be noted: 10 µM, 6 h, untransfected HeLa cells. How it is done:
as §6

These results are taken from PMC10954696, “Development of a novel AAK1 inhibitor via Kinobeads-based screening” (Scientific Reports, 2024).

Entries after “also recorded” stand apart in the source; their conditions may differ.

T1 sequence (Q2M2I8 25-396): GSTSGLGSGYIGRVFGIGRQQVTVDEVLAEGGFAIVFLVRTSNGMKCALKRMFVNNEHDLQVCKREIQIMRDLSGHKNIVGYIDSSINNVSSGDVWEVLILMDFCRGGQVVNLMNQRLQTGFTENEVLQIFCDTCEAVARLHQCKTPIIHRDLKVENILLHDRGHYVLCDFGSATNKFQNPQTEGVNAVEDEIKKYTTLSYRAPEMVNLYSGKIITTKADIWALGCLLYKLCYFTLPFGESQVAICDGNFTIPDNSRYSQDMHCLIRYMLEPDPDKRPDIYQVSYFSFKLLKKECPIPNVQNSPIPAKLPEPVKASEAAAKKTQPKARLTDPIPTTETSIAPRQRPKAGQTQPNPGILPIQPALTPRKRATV
T8 sequence (Q2M2I8 25-396): as above
T7 sequence (O88697 2-305 limits assumed): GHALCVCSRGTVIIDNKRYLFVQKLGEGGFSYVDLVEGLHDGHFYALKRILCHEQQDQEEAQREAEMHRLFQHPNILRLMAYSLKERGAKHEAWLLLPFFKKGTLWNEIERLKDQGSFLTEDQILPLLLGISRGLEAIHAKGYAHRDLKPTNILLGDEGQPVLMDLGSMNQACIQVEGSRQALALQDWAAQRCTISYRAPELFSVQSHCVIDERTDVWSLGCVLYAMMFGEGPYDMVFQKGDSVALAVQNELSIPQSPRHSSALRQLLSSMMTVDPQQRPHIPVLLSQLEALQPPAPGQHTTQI
T5 sequence (Q91Z96 2-396): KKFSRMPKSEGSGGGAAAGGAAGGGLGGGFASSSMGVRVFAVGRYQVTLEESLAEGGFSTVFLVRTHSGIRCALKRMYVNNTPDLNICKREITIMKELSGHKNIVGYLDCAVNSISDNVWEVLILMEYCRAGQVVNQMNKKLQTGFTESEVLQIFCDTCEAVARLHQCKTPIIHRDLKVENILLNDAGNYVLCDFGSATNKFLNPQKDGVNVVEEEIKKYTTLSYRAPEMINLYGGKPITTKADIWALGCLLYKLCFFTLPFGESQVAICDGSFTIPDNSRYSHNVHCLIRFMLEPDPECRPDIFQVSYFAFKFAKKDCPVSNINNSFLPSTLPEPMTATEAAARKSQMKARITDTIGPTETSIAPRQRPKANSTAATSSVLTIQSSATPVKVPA

`O=c1c2cccc3c([N+](=O)[O-])c(O)cc(c32)c2nc3ccccc3n12` [TIM-063, 2-hydroxy-3-nitro-7H-benzo[de]benzo[4,5]imidazo[2,1-a]isoquinolin-7-one] registered an inhibition at 2.6 µM in assay [1] (2.6 µM compound) of about 20%. For the same compound, the inhibition at 26 µM in assay [1] (26 µM compound) was about 80%. Also, the 50% inhibitory concentration (IC50) in assay [1] was 8510 nM; at CaMKKα/1 [2], 630 nM; at CaMKKβ/2 [3], 960 nM. Also, the “inhibitory effect on AAK1 relative to that on CaMKK” value in [1] (lower on AAK1 than on CaMKK) was “~ tenfold”. Besides, on His-tagged AAK1, the “interaction with AAK1 catalytic domain (His-AAK 25–396)” value is “strong interaction”. Besides, at His-tagged AAK1, the “interaction with His-tagged AAK1 full length (1–863)” value is reported as “weak binding”.

Turning to `Nc1ccc2c(c1)nc1c3cc(O)cc4cccc(c(=O)n21)c43` [TIM-098a, 11-amino-2-hydroxy-7H-benzo[de]benzo[4,5]imidazo[2,1-a]isoquinolin-7-one], the IC50 in assay [1] came out at 240 nM; on His-BIKE 2–396 it was 5990 nM; at His-GAK 2–370, 1040 nM; on His-STK16 2–306, 7150 nM; in assay [6], 870 nM. Further, the “AAK1 inhibitory potency relative to TIM-063” value in assay [1] (higher potency than TIM-063) is on record as ~ 35 fold. Further, the “selectivity for AAK1: higher inhibitory potency than for other NAKs” value in assay [1] (versus GAK, BIKE, STK16) is 4–30 fold. Also, at CaMKKα/1 [4], the “effect on CaMKKα/1 activity” value is “without any significant inhibitory effects; also recorded: without any inhibitory activity”. Also, the “effect on CaMKKβ/2 activity” value at CaMKKβ/2 [5] is given as “without any significant inhibitory effects; also recorded: without any inhibitory activity”. In addition, in assay [7], the “number of early endosomes in AAK1-transfected cells” value is reported as “recovered to the level of untransfected wild type cells”. Moreover, the “early endosome formation in wild type cells” value in the assay with HeLa cells is “not affected”.

What is called inhibition is the relative decrease from the control value, in per cent. Low values mean a weak effect, high ones a strong effect. One may read the IC50 as the concentration that inhibits the measured activity by half.
